Results taken from patent US20230312562A1, “TETRAHYDRO-3H-PYRAZOLO QUINOLONE AND TETRAHYDRO-3H-PYRROLO[3,2-F]QUINOLINE -CONTAINING COMPOUNDS AND USES THEREOF” (Purdue Research Foundation, priority 2020, published 2023).
Marks after values point to notes of the source that are not given here.

Key:
[1] = test system: MDA-MB-231; experiment: Inhibition of MDA-MB-231 viability/growth at 1 μM, 72 h; format: cell-based; conditions: Homo sapiens, MDA-MB-231; 1 μM compound, 72 h incubation
[2] = test system: MDA-MB-435; experiment: NCI-60 sulforhodamine B assay, MDA-MB-435; format: cell-based; conditions: MDA-MB-435, melanoma, 48 h; for GI50: Homo sapiens
Experimental: (§1) Compounds HSD1787, 22, 23 and 27 were sent to the National Cancer Institute (NCI), Bethesda, Maryland (Drug Evaluation Branch), to evaluate the effects of compounds on the NCI-60 cell panel. According to the NCI protocol, the compounds were evaluated at five concentrations (10-fold dilutions) with the highest concentration being 100 μM and the incubation period was 48 h. A sulforhodamine B assay was used to assay the effects of the compounds on the cancer cells. […] The most sensitive cell lines (total growth inhibition, TGI, could be achieved with concentrations less than 1 μM of some of the compounds) were MDA-MB-435 (melanoma), SF-539 (glioma), A498 (renal), MDA-MB-468 (breast), OVCAR-3 (ovarian), NCI-H522 (non-small cell lung cancer). On the other hand, UACC-257 and SK-MEL-28 (both melanoma), TK-10 (renal), OVCAR-4 (ovarian) and T-47D (breast) were resistant to the compounds as 10 μM could not cause total growth inhibition (Table 2). […] This is in line with current appreciation that tumor mutational burden and not necessarily the anatomical origin of the tumor determines treatment strategies or outcomes.
(§2) According to the National Cancer Institute, Bethesda, Maryland (the protocol of the Drug Evaluation Branch), the effects of compounds are measured as follows: Cell suspensions are diluted to a target cell density of 5000-40,000 cells per well (based on cell growth characteristics) in a 96-well microtiter plates. The test compounds were evaluated at five concentrations (10-fold dilutions) with the highest concentration being 100 μM. The incubation period was 48 h under 5% carbon dioxide atmosphere and 100% humidity. A sulforhodamine B assay was used to assay the cells. Optical densities of the wells were read by a plate reader the optical densities were processed into GI50 (the concentration that causes 50% growth inhibition).
(§3) The NCI renamed the IC50 value, the concentration of compound that causes 50% growth inhibition, as follows:
(§4) The control is the well not treated with test agent (https://dtp.cancer.gov/databases_tools/docs/compare/compare_methodology.htm).

[3] = test system: K-562; experiment: NCI-60 sulforhodamine B assay, K-562; format: cell-based; conditions: Homo sapiens, K562; K-562, leukemia, 48 h
Experimental: as §1, §2, §3, §4

[4] = test system: SF-539; experiment: NCI-60 sulforhodamine B assay, SF-539; format: cell-based; conditions: SF-539, CNS, 48 h; for GI50: Homo sapiens
Experimental: as §1, §2, §3, §4

[5] = test system: MCF7; experiment: NCI-60 sulforhodamine B assay, MCF7; format: cell-based; conditions: MCF7, breast, 48 h; for GI50: Homo sapiens
Experimental: as §1, §2, §3, §4

[6] = test system: A498; experiment: NCI-60 sulforhodamine B assay, A498; format: cell-based; conditions: A498, renal, 48 h; for GI50: Homo sapiens
Experimental: as §1, §2, §3, §4

[7] = test system: MDA-MB-468; experiment: NCI-60 sulforhodamine B assay, MDA-MB-468; format: cell-based; conditions: MDA-MB-468, breast, 48 h; for GI50: Homo sapiens
Experimental: as §1, §2, §3, §4

[8] = test system: SR; experiment: NCI-60 sulforhodamine B assay, SR; format: cell-based; conditions: Homo sapiens, lymphoma, 48 h
Experimental: as §1, §2, §3, §4

[9] = test system: SF-295; experiment: NCI-60 sulforhodamine B assay, SF-295; format: cell-based; conditions: SF-295, CNS, 48 h; for GI50: Homo sapiens
Experimental: as §1, §2, §3, §4

[10] = test system: Ovcar-3; experiment: NCI-60 sulforhodamine B assay, Ovcar-3; format: cell-based; conditions: Ovcar-3, ovarian, 48 h; for GI50: Homo sapiens
Experimental: as §1, §2, §3, §4

[11] = test system: NCI-H522; experiment: NCI-60 sulforhodamine B assay, NCI-H522; format: cell-based; conditions: NCI-H522, non-small cell lung, 48 h; for GI50: Homo sapiens
Experimental: as §1, §2, §3, §4

[12] = test system: Ovcar-8; experiment: NCI-60 sulforhodamine B assay, Ovcar-8; format: cell-based; conditions: Homo sapiens; Ovcar-8, ovarian, 48 h
Experimental: as §1, §2, §3, §4

[13] = test system: NCI/ADR-RES; experiment: NCI-60 sulforhodamine B assay, NCI/ADR-RES; format: cell-based; conditions: ovarian, 48 h; for GI50: Homo sapiens
Experimental: as §1, §2, §3, §4

[14] = test system: UACC-257; experiment: NCI-60 sulforhodamine B assay, UACC-257; format: cell-based; conditions: Homo sapiens; UACC-257, melanoma, 48 h
Experimental: as §1, §2, §3, §4

[15] = test system: TK-10; experiment: NCI-60 sulforhodamine B assay, TK-10; format: cell-based; conditions: Homo sapiens; TK-10, renal, 48 h
Experimental: as §1, §2, §3, §4

[16] = test system: Ovcar-4; experiment: NCI-60 sulforhodamine B assay, Ovcar-4; format: cell-based; conditions: Homo sapiens; Ovcar-4, ovarian, 48 h
Experimental: as §1, §2, §3, §4

[17] = test system: SK-MEL-28; experiment: NCI-60 sulforhodamine B assay, SK-MEL-28; format: cell-based; conditions: Homo sapiens; SK-MEL-28, melanoma, 48 h
Experimental: as §1, §2, §3, §4

[18] = test system: T-47D; experiment: NCI-60 sulforhodamine B assay, T-47D; format: cell-based; conditions: Homo sapiens, T47D, breast, 48 h
Experimental: as §1, §2, §3, §4

[19] = test system: tubulin; experiment: Inhibition of tubulin polymerization; format: biochemical; conditions: at 10 μM; similar to inhibition by colchicine
[20] = test system: NCI60 cell lines; experiment: NCI-60 cell panel, summary statements; format: cell-based; conditions: melanoma, renal, breast, ovarian and leukemia cancer cell lines; read-out: GI50 values as low as
Experimental: as §1, §2, §3, §4

Row | Structure (SMILES) | GI50 [2] | GI50 [3] | GI50 [4] | TGI (total growth inhibition) [4] | GI50 [5] | TGI (total growth inhibition) [6] | GI50 [6] | GI50 [7] | GI50 [8] | GI50 [9] | GI50 [10] | GI50 [11] | TGI (total growth inhibition) [11] | GI50 [12] | GI50 [13] | TGI (total growth inhibition) [13] | GI50 [14] | GI50 [15] | GI50 [16] | GI50 [17] | other results
1 | Nc1n[nH]c2ccc([C@@H]3Nc4ccc5[nH]ncc5c4[C@H]4C5CC[C@@H](C5)[C@@H]34)cc12 (stereo in doubt) [HSD1787, 5-(6,7,7a,8,9,10,11,11a-Octahydro-3H-8,11-methanopyrazolo[4,3-a]phenanthridin-7-yl)-1H-indazol-3-amine] | 124 nM | 264 nM | 232 nM | 0.654 µM | 375 nM | 0.646 µM | 179 nM | 269 nM | 233 nM | 340 nM | 243 nM | 210 nM | 0.868 µM | 479 nM | 480 nM | > 10000 nM | > 10000 nM | 3860 nM | 2140 nM | 934 nM | inhibition at 1 µM [1]: 95%; TGI (total growth inhibition) [2]: 0.329 µM; TGI (total growth inhibition) [7]: 2.73 µM; TGI (total growth inhibition) [10]: 634 nM; GI50 [18]: > 10000 nM; Inhibition of the polymerization of tubulin [19]: inhibited the polymerization of tubulin
2 | Nc1n[nH]c2ccc([C@@H]3Nc4c(F)cc5[nH]ncc5c4[C@H]4[C@@H]5CC[C@@H](C5)[C@H]43)cc12 (stereo in doubt) [Compound 22, 5-(5-fluoro-6,7,7a,8,9,10,11,11a-octahydro-3H-8,11-methanopyrazolo[4,3-a]phenanthridin-7-yl)-1H-indazol-3-amine] | 34.8 nM | 47.7 nM | 167 nM | 0.590 µM | 61.6 nM | 0.636 µM | 72.2 nM | 78.8 nM | 87.7 nM | 50 nM | 220 nM | 115 nM | 1.92 µM | 448 nM | 198 nM | 921 nM | 5010 nM | 10700 nM | 3340 nM | 1400 nM | inhibition at 1 µM [1]: 79%; TGI (total growth inhibition) [7]: 0.468 µM; TGI (total growth inhibition) [10]: 806 nM; GI50 [18]: > 10000 nM; GI50 [20]: ≥ 30 nM
3 | Nc1n[nH]c2cc(F)c([C@@H]3Nc4ccc5[nH]ncc5c4[C@H]4[C@@H]5CC[C@@H](C5)[C@H]43)cc12 (stereo in doubt) [Compound 27, 6-Fluoro-5-(6,7,7a,8,9,10,11,11a-octahydro-3H-8,11-methanopyrazolo[4,3-a]phenanthridin-7-yl)-1H-indazol-3-amine] | 94.3 nM | 92.2 nM | 114 nM | 0.304^d μM | 137 nM | 0.280^d μM | 71.4 nM | 133 nM | 59.8 nM | 139 nM | 138 nM | 109 nM | 0.544^d μM | 194 nM | 177 nM | 1210 nM | 2700 nM | 2020 nM | 416 nM | 352 nM | inhibition at 1 µM [1]: ~100%; TGI (total growth inhibition) [2]: 0.283^d μM; TGI (total growth inhibition) [5]: 8440 nM; TGI (total growth inhibition) [7]: 0.424^d μM; TGI (total growth inhibition) [9]: 5770 nM; GI50 [18]: > 10000 nM; GI50 [20]: ≥ 30 nM
4 | Nc1n[nH]c2cc(F)c([C@@H]3Nc4c(F)cc5[nH]ncc5c4[C@H]4[C@@H]5CC[C@@H](C5)[C@H]43)cc12 (stereo in doubt) [Compound 23, 6-Fluoro-5-(5-fluoro-6,7,7a,8,9,10,11,11a-octahydro-3H-8,11-methanopyrazolo[4,3-a]phenanthridin-7-yl)-1H-indazol-3-amine] | 84.6 nM | 110 nM | 85.2 nM | 0.270 µM | 131 nM | 0.2 µM | 69 nM | 86.5 nM | 131 nM | 91.5 nM | 103 nM | 105 nM | 6.60 µM | 142 nM | 150 nM | 5810 nM | 5660 nM | 5720 nM | 1170 nM | 3680 nM | TGI (total growth inhibition) [2]: 0.231 µM; TGI (total growth inhibition) [5]: 8330 nM; TGI (total growth inhibition) [9]: 3990 nM; TGI (total growth inhibition) [10]: 4100 nM; GI50 [18]: > 10000 nM; GI50 [20]: ≥ 30 nM
